# Measured values taken from patent publication US11696913B2, “Prolonged ectoparasite-controlling agent for animal” (MITSUI CHEMICALS AGRO, INC., priority 2017, dated 2023).
# How the values were obtained:
# [1] = tested on: Amblyomma americanum; experiment: In vitro contact test with hard ticks (Amblyomma americanum nymphs); conditions: read-out: acaricidal activity; for pest or weed control at 1 µg/cm2, 1 µg/cm2: dose 1 μg/cm^2, 48 h; for pest or weed control at 0.2 µg/cm2, 0.2 µg/cm2: dose 0.2 μg/cm^2, 48 h
# Method: (§1) In Vitro Contact Tests with Adult Hard Ticks
# (§2) In vitro contact tests with ticks were conducted with adult males and females of Rhipicephalus sanguineus, Ixodes ricinus, or Dermacentor variabilis, or nymphs of Amblyomma americanum.
# (§3) For the coating of the test vials, the test substance was dissolved and diluted in acetone p.a. to the desired concentration. The solution was then homogeneously applied to the inner wall and base of a glass vial by turning and rocking on an orbital shaker until complete evaporation of the solvent. For example, with a 900 ppm solution of test substance, an area-based dose of 5 μg/cm^2 was achieved.
# (§4) After the solvent was completely evaporated, 5-10 adult ticks were put in each coated test vial, which was then sealed with a perforated plastic lid and incubated in a horizontal position in the dark at room temperature and ambient humidity (Rhipicephalus sanguineus) or in a climate-controlled cabinet (Ixodes ricinus, Dermacentor variabilis, Amblyomma americanum [21° C., 85% rel. hum.]). Acaricidal activity against the respective tick species was determined after 48 h. For this, ticks were collected to the base of the test vial by gentle knocking, and test vials were then incubated on a hotplate at 45-50° C. for no longer than 5 min. Ticks which remained motionless on the base of the test vial or moved uncoordinated without deliberately climbing up to avoid the heat were considered dead or moribund, respectively.
# (§5) A substance was judged to have good acaricidal activity against the respective tick species when at least 80% of ticks were found dead or moribund at a dose of the substance of g/cm^2. An acaricidal activity of 100% means all ticks were dead or moribund. An acaricidal activity of 0% means none of the ticks was found dead or moribund.
# [2] = tested on: Ctenocephalides felis; experiment: Ctenocephalides felis in-vitro feeding test with fleas (CTECFE oral); conditions: 48 hours, read-out: insecticidal feeding activity; for pest or weed control at 0.8 ppm: dose 0.8 ppm in citrated cattle blood; for pest or weed control at 4 ppm: dose 4 ppm in citrated cattle blood; for pest or weed control at 0.16 ppm: dose 0.16 ppm in citrated cattle blood
# Method: Ctenocephalides felis In-Vitro Feeding Test with Fleas (CTECFE Oral)
# To prepare a test blood mixture for feeding fleas, the test substance was dissolved in dimethyl sulphoxide and diluted with citrated cattle blood to the desired concentration.
# To assemble the test set-up, about 20 unfed adult male and female cat fleas
# (Ctenocephalides felis) were placed in a chamber which was closed at the top and bottom with gauze. A metal cylinder was sealed at one end with parafilm membrane, placed with the sealed base onto the chamber, and filled with the test blood mixture, which could be imbibed by the fleas through the parafilm membrane. The assembled test set-up was maintained at about 37° C. After 48 hours, the insecticidal feeding activity against fleas was determined. 100% means that all of the fleas were killed; 0% means that none of the fleas was killed.
# [3] = tested on: Rhipicephalus (Boophilus) microplus; experiment: In vitro injection test with Rhipicephalus (Boophilus) microplus (BOOPMI Inj); conditions: 168 h, laid fertile eggs after 7 days, read-out: acaricidal activity; for pest or weed control at 0.00016 mg: dose 0.16 μg/animal injected; for pest or weed control at 0.0008 mg: dose 0.8 μg/animal injected; for pest or weed control at 32 ng: dose 0.032 μg/animal injected
# Method: In Vitro Injection Test with Rhipicephalus (Boophilus) Microplus (BOOPMI Inj)
# To produce an appropriate mixture for injection, the test substance was dissolved and diluted in dimethyl sulphoxide to the desired concentration. 1 μl of the test mixture was injected into the abdomen of each of 5 engorged adult female cattle ticks (Rhipicephalus (Boophilus) microplus). The ticks were transferred into petri dishes and maintained in a climate-controlled room [28° C., 85% rel. hum.].
# Acaricidal activity against cattle ticks was assessed after 7 days by assessment of laid fertile eggs. […] An acaricidal activity of 100% means that none of the ticks laid eggs or laid eggs were infertile; 0% means that the ticks laid eggs, and all the eggs were fertile.
# [4] = tested on: Ctenocephalides felis; experiment: In vitro contact test with fleas; conditions: read-out: insecticidal activity; for pest or weed control at 0.2 µg/cm2, 0.2 µg/cm2: dose 0.2 μg/cm^2, dead or moribund fleas after 48 h; for pest or weed control at 1 µg/cm2, 1 µg/cm2: dose 1 μg/cm^2, dead or moribund fleas after 48 h; for pest or weed control at 0.04 µg/cm2, 0.04 µg/cm2: dose 0.04 μg/cm^2, dead or moribund fleas after 48 h
# Method: In Vitro Contact Tests with Fleas
# In vitro contact tests with fleas were conducted with adult male and female cat fleas (Ctenocephalides felis).
# as §3, with “To coat” for “For the coating of”, “tubes,” for “vials,”, “tube” for “vial”
# Upon complete evaporation of the solvent, 5-10 adult cat fleas (Ctenocephalides felis) were added to each coated tube, which was then sealed with a perforated plastic lid and incubated in a horizontal position at room temperature and ambient humidity. After 48 h, insecticidal activity against fleas was determined. For this, fleas were collected to the base of the tube by knocking the tube, and the tube was allowed to stand upright. Fleas which remained motionless at the base or moved in an uncoordinated manner were considered dead or moribund, respectively.
# A substance was judged to have good insecticidal activity against Ctenocephalides felis when at least 80% of the fleas were found dead or moribund at a dose of the substance of μg/cm^2. 100% insecticidal activity means that all the fleas were found dead or moribund. 0% insecticidal activity means that no fleas were found dead or moribund.
# [5] = tested on: Dermacentor variabilis; experiment: In vitro contact test with adult hard ticks (Dermacentor variabilis); conditions: read-out: acaricidal activity; for pest or weed control at 0.2 µg/cm2, 0.2 µg/cm2: dose 0.2 μg/cm^2, 48 h; for pest or weed control at 1 µg/cm2, 1 µg/cm2: dose 1 μg/cm^2, 48 h
# Method: as §1, §2, §3, §4, §5
# [6] = tested on: Ixodes ricinus; experiment: In vitro contact test with adult hard ticks (Ixodes ricinus); conditions: read-out: acaricidal activity; for pest or weed control at 0.2 µg/cm2, 0.2 µg/cm2: dose 0.2 μg/cm^2, 48 h; for pest or weed control at 1 µg/cm2, 1 µg/cm2: dose 1 μg/cm^2, 48 h; for pest or weed control at 5 µg/cm2, 5 µg/cm2: dose 5 μg/cm^2, 48 h
# Method: as §1, §2, §3, §4, §5
# [7] = tested on: Rhipicephalus sanguineus; experiment: In vitro contact test with adult hard ticks (Rhipicephalus sanguineus); conditions: read-out: acaricidal activity; for pest or weed control at 0.2 µg/cm2, 0.2 µg/cm2: dose 0.2 μg/cm^2, 48 h; for pest or weed control at 0.04 µg/cm2, 0.04 µg/cm2: dose 0.04 μg/cm^2, 48 h; for pest or weed control at 1 µg/cm2, 1 µg/cm2: dose 1 μg/cm^2, 48 h
# Method: as §1, §2, §3, §4, §5
SMILES,"pest or weed control at 1 µg/cm2, 1 µg/cm2 [1]",pest or weed control at 0.8 ppm [2],pest or weed control at 4 ppm [2],pest or weed control at 0.00016 mg [3],pest or weed control at 0.0008 mg [3],"pest or weed control at 0.2 µg/cm2, 0.2 µg/cm2 [4]","pest or weed control at 1 µg/cm2, 1 µg/cm2 [4]","pest or weed control at 0.2 µg/cm2, 0.2 µg/cm2 [5]","pest or weed control at 1 µg/cm2, 1 µg/cm2 [5]","pest or weed control at 5 µg/cm2, 5 µg/cm2 [6]","pest or weed control at 0.2 µg/cm2, 0.2 µg/cm2 [7]","pest or weed control at 0.2 µg/cm2, 0.2 µg/cm2 [1]","pest or weed control at 0.04 µg/cm2, 0.04 µg/cm2 [7]","pest or weed control at 1 µg/cm2, 1 µg/cm2 [7]",pest or weed control at 0.16 ppm [2],other results
N#Cc1ccc(C(=O)Nc2cccc(C(=O)Nc3c(Br)cc(C(F)(C(F)(F)F)C(F)(F)F)cc3OC(F)(F)F)c2)cc1 [Compound 9],90%,95%,95%,100%,100%,95%,95%,90%,90%,90%,90%,–,–,–,–,"pest or weed control at 0.2 µg/cm2, 0.2 µg/cm2 [6]: 90%; pest or weed control at 1 µg/cm2, 1 µg/cm2 [6]: 90%"
O=C(Nc1cccc(C(=O)Nc2c(Br)cc(C(F)(C(F)(F)F)C(F)(F)F)cc2OC(F)(F)F)c1)c1ccc(F)cc1 [Compound 12],90%,95%,95%,100%,100%,95%,95%,–,–,90%,90%,90%,90%,90%,–,"pest or weed control at 0.04 µg/cm2, 0.04 µg/cm2 ([1]; dose 0.04 μg/cm^2, 48 h): 90%; pest or weed control at 0.2 µg/cm2, 0.2 µg/cm2 [6]: 90%; pest or weed control at 1 µg/cm2, 1 µg/cm2 [6]: 90%"
N#Cc1ccc(C(=O)Nc2cccc(C(=O)Nc3c(I)cc(C(F)(C(F)(F)F)C(F)(F)F)cc3C(F)(F)F)c2)cc1 [Compound 19],90%,95%,95%,100%,100%,95%,95%,–,–,–,90%,–,–,90%,–,–
CN(C(=O)c1ccc(F)nc1)c1cccc(C(=O)Nc2c(Br)cc(C(F)(C(F)(F)F)C(F)(F)F)cc2C(F)(F)F)c1F [Compound 21],90%,95%,95%,100%,100%,95%,95%,90%,90%,–,90%,90%,90%,90%,–,"pest or weed control at 32 ng [3]: 100%; pest or weed control at 0.04 µg/cm2, 0.04 µg/cm2 [4]: 95%"
CN(C(=O)c1ccc(C#N)cc1)c1cccc(C(=O)Nc2c(I)cc(C(F)(C(F)(F)F)C(F)(F)C(F)(F)F)cc2C(F)(F)F)c1F (centres unmarked) [Compound 23],90%,95%,95%,100%,100%,95%,95%,90%,90%,–,–,–,–,90%,95%,"pest or weed control at 0.0064 ppm ([2]; dose 0.0064 ppm in citrated cattle blood): 95%; pest or weed control at 0.032 ppm ([2]; dose 0.032 ppm in citrated cattle blood): 95%; pest or weed control at 6.4 ng ([3]; dose 0.0064 μg/animal injected): 100%; pest or weed control at 32 ng [3]: 100%; pest or weed control at 0.04 µg/cm2, 0.04 µg/cm2 [4]: 95%; pest or weed control at 0.04 µg/cm2, 0.04 µg/cm2 ([5]; dose 0.04 μg/cm^2, 48 h): 90%"
O=C(Nc1cccc(C(=O)Nc2c(Br)cc(C(F)(C(F)(F)F)C(F)(F)F)cc2C(F)(F)F)c1F)c1ccc(F)cc1 [Compound 29],90%,95%,95%,–,–,95%,95%,90%,90%,90%,90%,90%,90%,90%,–,–
O=C(Nc1cccc(C(=O)Nc2c(I)cc(C(F)(C(F)(F)F)C(F)(F)F)cc2C(F)(F)F)c1F)c1ccc(Cl)cc1Cl [Compound 33],90%,95%,95%,100%,100%,95%,95%,90%,90%,–,–,90%,–,–,95%,–
O=C(Nc1c(I)cc(C(F)(C(F)(F)F)C(F)(F)F)cc1C(F)(F)F)c1cccc(NC(=O)c2cc(F)c(F)cc2Cl)c1 [Compound 38],90%,95%,95%,100%,100%,95%,95%,–,90%,–,–,90%,–,–,95%,–
O=C(Nc1c(I)cc(C(F)(C(F)(F)F)C(F)(F)F)cc1C(F)(F)F)c1cccc(NC(=O)c2ccc([N+](=O)[O-])cc2Cl)c1 [Compound 39],90%,95%,95%,100%,100%,–,95%,–,–,–,–,90%,–,90%,–,–
